PubChem BioAssay (NCI)
Values joined by “and” are separate entries in the source; they are usually repeats but may differ in a detail not shown here. Equal entries are not always repeated.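 Cultured in 96-well plates, cells were exposed to test compound for 48 hours across five concentrations. Abbreviation: GI50, concentration required for 50% inhibition of growth. TGI: total growth inhibition.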

Columns and labels:
Experiment in all cases: DTP human tumour cell line panel, 48 h
OVCAR-3 ovarian = system: OVCAR-3 ovarian
SK-MEL-2 melanoma = system: SK-MEL-2 melanoma
NCI-H460 lung = system: NCI-H460 lung
SF-268 CNS = system: SF-268 CNS
UO-31 renal = system: UO-31 renal
M14 melanoma = system: M14 melanoma
A549 NSCLC = system: A549 NSCLC
HCC-2998 colon = system: HCC-2998 colon
RPMI-8226 leukemia = system: RPMI-8226 leukemia
MOLT-4 leukemia = system: MOLT-4 leukemia

C[n+]1cccc2c(=O)c3ccccc3oc21
TGI (OVCAR-3 ovarian): > 100 µM
TGI (SK-MEL-2 melanoma): > 100 µM
TGI (NCI-H460 lung): > 100 µM
TGI (SF-268 CNS): > 100 µM
TGI (UO-31 renal): > 100 µM
TGI (M14 melanoma): > 100 µM
TGI (A549 NSCLC): > 100 µM
TGI (HCC-2998 colon): > 100 µM

COc1ccc(CC(N)c2ccc(OC)cc2)cc1 (centres undefined)
TGI (RPMI-8226 leukemia): 83 µM
TGI (OVCAR-3 ovarian): > 100 µM
TGI (NCI-H460 lung): > 100 µM
TGI (SF-268 CNS): > 100 µM
TGI (UO-31 renal): > 100 µM
TGI (MOLT-4 leukemia): > 100 µM
TGI (M14 melanoma): > 100 µM
TGI (A549 NSCLC): > 100 µM
TGI (HCC-2998 colon): 35 µM

CCNC(=S)N=Nc1c(O)[nH]c2ccc([N+](=O)[O-])cc12
TGI (RPMI-8226 leukemia): > 100 µM
TGI (OVCAR-3 ovarian): > 100 µM
TGI (SK-MEL-2 melanoma): > 100 µM
TGI (NCI-H460 lung): > 100 µM
TGI (SF-268 CNS): > 100 µM
TGI (UO-31 renal): > 100 µM
TGI (MOLT-4 leukemia): > 100 µM
TGI (M14 melanoma): > 100 µM
TGI (A549 NSCLC): > 100 µM
TGI (HCC-2998 colon): 72.8 µM

CCOP(=O)(/C=C\n1cc(C)c(=O)[nH]c1=O)OCC
TGI (RPMI-8226 leukemia): > 100 µM
TGI (OVCAR-3 ovarian): > 100 µM
TGI (SK-MEL-2 melanoma): > 100 µM
TGI (NCI-H460 lung): > 100 µM
TGI (SF-268 CNS): > 100 µM
TGI (MOLT-4 leukemia): > 100 µM
TGI (M14 melanoma): > 100 µM
TGI (A549 NSCLC): > 100 µM

Cc1ccc(S(=O)(=O)n2c3ccc(Br)cc3c3nc4ccccc4nc32)cc1
TGI (RPMI-8226 leukemia): > 100 µM
TGI (OVCAR-3 ovarian): > 100 µM
TGI (SK-MEL-2 melanoma): > 100 µM
TGI (NCI-H460 lung): > 100 µM
TGI (SF-268 CNS): > 100 µM
TGI (UO-31 renal): > 100 µM
TGI (MOLT-4 leukemia): > 100 µM
TGI (M14 melanoma): > 100 µM
TGI (A549 NSCLC): > 100 µM
TGI (HCC-2998 colon): > 100 µM

CC(NC(=O)C(NC(=O)CNC(=O)OC(C)(C)C)C(C)C)C(=O)Oc1c(Cl)c(Cl)c(Cl)c(Cl)c1Cl (centres undefined)
TGI (RPMI-8226 leukemia): > 100 µM
TGI (OVCAR-3 ovarian): 28.5 µM
TGI (SK-MEL-2 melanoma): 30.3 µM
TGI (NCI-H460 lung): 39.3 µM
TGI (SF-268 CNS): 65.2 µM
TGI (UO-31 renal): 29.5 µM
TGI (MOLT-4 leukemia): > 100 µM
TGI (M14 melanoma): 39.5 µM
TGI (A549 NSCLC): 57.5 µM
TGI (HCC-2998 colon): 39.4 µM

[Cl][Sn]([c]1ccccc1)([c]1ccccc1)[c]1ccccc1
TGI (OVCAR-3 ovarian): 0.362 µM and 0.0422 µM and 0.0566 µM
TGI (SK-MEL-2 melanoma): 0.524 µM and 0.196 µM and 0.0578 µM
GI50 (UO-31 renal): 0.183 µM and 0.0863 µM and 0.0343 µM
TGI (UO-31 renal): 0.366 µM and 0.209 µM and 0.127 µM
TGI (A549 NSCLC): 0.41 µM and 0.176 µM and 0.0469 µM

OCCO/N=C1\C(c2c(O)[nH]c3ccccc23)=Nc2ccccc21
TGI (RPMI-8226 leukemia): > 100 µM
TGI (OVCAR-3 ovarian): > 100 µM
TGI (SK-MEL-2 melanoma): > 100 µM
TGI (NCI-H460 lung): > 100 µM
TGI (SF-268 CNS): > 100 µM
TGI (UO-31 renal): > 100 µM
TGI (MOLT-4 leukemia): > 100 µM
TGI (M14 melanoma): > 100 µM
TGI (A549 NSCLC): > 100 µM
TGI (HCC-2998 colon): > 100 µM

Cc1cccc(Nc2nn3c(=O)c4c5c(sc4nc3s2)CCCC5)c1
TGI (OVCAR-3 ovarian): > 100 µM
TGI (SK-MEL-2 melanoma): > 100 µM
TGI (NCI-H460 lung): > 100 µM
TGI (SF-268 CNS): > 100 µM
TGI (UO-31 renal): > 100 µM
TGI (MOLT-4 leukemia): > 100 µM
TGI (M14 melanoma): > 100 µM
TGI (A549 NSCLC): > 100 µM

CCN(CC)N1C(=O)[N+](CC)(CC)N=C1[O-]
TGI (RPMI-8226 leukemia): > 100 µM
TGI (OVCAR-3 ovarian): > 100 µM
TGI (SK-MEL-2 melanoma): > 100 µM
TGI (NCI-H460 lung): > 100 µM
TGI (SF-268 CNS): > 100 µM
TGI (UO-31 renal): > 100 µM
TGI (MOLT-4 leukemia): > 100 µM
TGI (M14 melanoma): > 100 µM
TGI (A549 NSCLC): > 100 µM
TGI (HCC-2998 colon): > 100 µM

O=c1cc(N2CCCC2)[nH]c(=O)n1Cc1ccccc1
TGI (RPMI-8226 leukemia): > 100 µM
TGI (SK-MEL-2 melanoma): > 100 µM
TGI (NCI-H460 lung): > 100 µM
TGI (MOLT-4 leukemia): > 100 µM
TGI (M14 melanoma): > 100 µM
TGI (A549 NSCLC): > 100 µM
TGI (HCC-2998 colon): > 100 µM

Cc1csc(NC23CC4CC(CC(C4)C2)C3)[n+]1C(P(=O)([O-])O)P(=O)(O)O (centres undefined)
TGI (RPMI-8226 leukemia): > 100 µM
TGI (OVCAR-3 ovarian): > 100 µM
TGI (NCI-H460 lung): > 100 µM
TGI (SF-268 CNS): > 100 µM
TGI (UO-31 renal): > 100 µM
TGI (MOLT-4 leukemia): > 100 µM
TGI (M14 melanoma): > 100 µM
TGI (A549 NSCLC): > 100 µM
TGI (HCC-2998 colon): > 100 µM

Cc1ccc(OCC2OC(n3cnc4nc(N)nc(Cl)c43)CC2Oc2ccc(C)cc2)cc1 (centres undefined)
TGI (RPMI-8226 leukemia): 56.5 µM
TGI (OVCAR-3 ovarian): 41 µM
TGI (SK-MEL-2 melanoma): 37.7 µM
TGI (NCI-H460 lung): 97 µM
TGI (SF-268 CNS): 44.6 µM
TGI (MOLT-4 leukemia): 52.7 µM
TGI (M14 melanoma): 41.2 µM
TGI (A549 NSCLC): 58.3 µM
TGI (HCC-2998 colon): 33.6 µM

COP(=O)(OC)C(Cc1cn(C(C)=O)c2ccccc12)C(=O)O (centres undefined)
TGI (RPMI-8226 leukemia): > 100 µM
TGI (OVCAR-3 ovarian): > 100 µM
TGI (SK-MEL-2 melanoma): > 100 µM
TGI (NCI-H460 lung): > 100 µM
TGI (UO-31 renal): > 100 µM
TGI (MOLT-4 leukemia): > 100 µM
TGI (M14 melanoma): > 100 µM
TGI (A549 NSCLC): > 100 µM
TGI (HCC-2998 colon): > 100 µM

C=C/C(C)=C\CC1[C@](C)(O)CC[C@H]2C(C)(C)C(=O)CC[C@]12C (some centres undefined)
TGI (RPMI-8226 leukemia): > 100 µM
TGI (OVCAR-3 ovarian): > 100 µM
TGI (SK-MEL-2 melanoma): > 100 µM
TGI (NCI-H460 lung): > 100 µM
TGI (SF-268 CNS): > 100 µM
TGI (UO-31 renal): 57 µM
TGI (MOLT-4 leukemia): 79.3 µM
TGI (M14 melanoma): > 100 µM
TGI (A549 NSCLC): > 100 µM

CCOC(=O)c1nc2ccc(C(F)(F)F)cc2nc1Oc1cc(OC)c(OC)c(OC)c1
TGI (RPMI-8226 leukemia): > 100 µM
TGI (OVCAR-3 ovarian): > 100 µM
TGI (SK-MEL-2 melanoma): > 100 µM
TGI (NCI-H460 lung): > 100 µM
TGI (SF-268 CNS): > 100 µM
TGI (UO-31 renal): > 100 µM
TGI (MOLT-4 leukemia): > 100 µM
TGI (M14 melanoma): > 100 µM
TGI (A549 NSCLC): > 100 µM

CCNCCCn1c2c(c3ccc(Cl)cc3c1=O)C(=O)c1cc(OC)cnc1-2
GI50 (RPMI-8226 leukemia): 1.25 µM
TGI (RPMI-8226 leukemia): 3.65 µM
GI50 (OVCAR-3 ovarian): 2.13 µM
TGI (OVCAR-3 ovarian): 19.6 µM
GI50 (SK-MEL-2 melanoma): 12.5 µM
TGI (SK-MEL-2 melanoma): 29.2 µM
GI50 (SF-268 CNS): 0.33 µM
TGI (SF-268 CNS): 2.04 µM
GI50 (UO-31 renal): 0.543 µM
TGI (UO-31 renal): 2.37 µM
GI50 (MOLT-4 leukemia): 0.0384 µM
TGI (MOLT-4 leukemia): 1.62 µM
GI50 (M14 melanoma): 0.518 µM
TGI (M14 melanoma): 2.06 µM
GI50 (A549 NSCLC): 0.459 µM
TGI (A549 NSCLC): 2.31 µM
GI50 (HCC-2998 colon): 1.28 µM
TGI (HCC-2998 colon): 2.99 µM

CC1CCCC2(CC[N+](C)(CCC[N+](C)(C)C)CC2)C1 (centres undefined)
TGI (RPMI-8226 leukemia): > 100 µM
TGI (OVCAR-3 ovarian): > 100 µM
TGI (SK-MEL-2 melanoma): > 100 µM
TGI (NCI-H460 lung): > 100 µM
TGI (SF-268 CNS): > 100 µM
TGI (UO-31 renal): > 100 µM
TGI (MOLT-4 leukemia): > 100 µM
TGI (M14 melanoma): > 100 µM
TGI (A549 NSCLC): > 100 µM

O=C1NC(=O)C(C(CC(=O)c2ccc([N+](=O)[O-])cc2)c2ccccc2)C(=O)N1 (centres undefined)
TGI (RPMI-8226 leukemia): > 100 µM
TGI (OVCAR-3 ovarian): > 100 µM
TGI (SK-MEL-2 melanoma): > 100 µM
TGI (NCI-H460 lung): > 100 µM
TGI (SF-268 CNS): > 100 µM
TGI (UO-31 renal): > 100 µM
TGI (MOLT-4 leukemia): > 100 µM
TGI (M14 melanoma): > 100 µM
TGI (A549 NSCLC): > 100 µM

O=C(N/N=C/C=C/c1ccc([N+](=O)[O-])o1)c1cc2ccccc2cc1O
GI50 (RPMI-8226 leukemia): 1.53 µM
TGI (RPMI-8226 leukemia): 6.83 µM
GI50 (OVCAR-3 ovarian): 0.562 µM
TGI (OVCAR-3 ovarian): 5.83 µM
GI50 (NCI-H460 lung): 1.64 µM
TGI (NCI-H460 lung): 6.9 µM
GI50 (SF-268 CNS): 1.43 µM
TGI (SF-268 CNS): 7.43 µM
GI50 (UO-31 renal): 1.05 µM
TGI (UO-31 renal): 4.06 µM
GI50 (MOLT-4 leukemia): 1.18 µM
TGI (MOLT-4 leukemia): 7.3 µM
GI50 (M14 melanoma): 0.758 µM
TGI (M14 melanoma): 2.15 µM
GI50 (A549 NSCLC): 2.75 µM
TGI (A549 NSCLC): 12.2 µM
GI50 (HCC-2998 colon): 1.31 µM
TGI (HCC-2998 colon): 2.59 µM

Nc1ccc(S(=O)(=O)c2ccc(NCN3C(=O)NC(=O)C(=O)C3=O)cc2)cc1
TGI (OVCAR-3 ovarian): > 100 µM
TGI (SK-MEL-2 melanoma): > 100 µM
TGI (NCI-H460 lung): > 100 µM
TGI (SF-268 CNS): > 100 µM
TGI (UO-31 renal): > 100 µM
TGI (MOLT-4 leukemia): > 100 µM
TGI (M14 melanoma): > 100 µM
TGI (A549 NSCLC): > 100 µM
TGI (HCC-2998 colon): > 100 µM

CC(=O)OCC1OC(SC2=N/C(=C\c3ccc(Br)s3)C(=O)N2CN2CCOCC2)C(OC(C)=O)C(OC(C)=O)C1OC(C)=O (centres undefined)
TGI (RPMI-8226 leukemia): 27 µM
TGI (NCI-H460 lung): 38.6 µM
TGI (SF-268 CNS): 81.9 µM
TGI (UO-31 renal): 29.4 µM
TGI (MOLT-4 leukemia): 52.8 µM
TGI (HCC-2998 colon): 38.7 µM
